Test results taken from patent EP4666996A1, “COMPOSITION CONTAINING PEPTIDES OF VEGETABLE ORIGIN” (Quiris Healthcare GmbH & Co. KG, priority 2024, dated 2025).
Where two headings read alike, the source gives them in different places. No end group written: not given here.

Tests used:
BJ-5ta cells = assay: Cell viability assay (MTT); type: cell-based
Experimental: (§1) Fibroblast cells (BJ-5ta, CRL-4001) were cultured in complete medium, a 4:1 mixture of Dulbecco's medium and Medium 199 with supplements as 4 parts of Dulbecco's Modified Eagle's Medium containing 4 mM L-glutamine, 4.5 g/L glucose and 1.5 g/L sodium bicarbonate, 1 part of Medium 199 supplemented with 0.01 mg/mL hygromycin B 10% fetal bovine serum with incubation at 37 °C under 5% CO2 atmosphere.
A total of 10^4 fibroblasts/well were seeded in 96-well plates and treated with pea, rice and collagen peptides (from 1 to 20 mg/mL) and ascorbic acid (from 0.1 to 10 mg/mL), CR1, CR2, CP1, CP2, CP3, CP4 and CP5 peptides (from 25 to 500 µM) or H2O2 (from 0.1 to 1 mg/mL) or vehicle (H2O) in complete growth media for 48 h at 37 °C under 5% CO2 atmosphere. Subsequently, the treatment solvent was aspirated and 100 µL/well of 3-(4,5-dimethylthiazol-2-yl)-2,5-diphenyltetrazolium bromide (MTT) filtered solution added. After 2 h of incubation at 37 °C under 5% CO2 atmosphere, 0.5 mg/mL solution was aspirated and 100 µL/well of the lysis buffer (8 mM HCl + 0.5% NP-40 in DMSO) added. After 10 min of slow shaking, the absorbance at 575 nm was read on the Synergy H1 fluorescence plate reader (Biotek, Bad Friedrichshall, Germany).
In this example, the effect of pea and rice peptides was tested on BJ-5ta cells in a modified MTT assay as described above. […]

ABTS assay = type: biochemical
Experimental: The ABTS assay is based on the reduction of the 2,2-azino-bis-(3-ethylbenzothiazoline-6-sulfonic acid (ABTS) radical induced by antioxidants. The ABTS radical cation (ABTS+● was prepared by mixing a 7 mM ABTS solution (Sigma-Aldrich, Milan, Italy) with 2.45 mM potassium persulfate (1:1) and stored for 16 h at room temperature and in dark. To prepare the ABTS reagent, the ABTS+● was diluted in 5 mM phosphate buffer (pH 7.4) to obtain a stable absorbance of 0.700 (±0.02) at 730 nm. For the assay, 10 µL of samples were added to 140 µL of diluted the ABTS+● at the following final concentrations: 0.01 and 0.1 mg/mL for pea and rice peptides; 0.1, 1, 10 and 20 mg/mL for collagen peptides; 0.0001, 0.001 and 0.01 mg/mL for ascorbic acid; 1, 10, 25, 50, 100 µM for CR1, CP1 and CP2 peptides. The microplate was incubated for 30 min at 30 °C and the absorbance was read at 730 nm using a Synergy™ HT-multimode microplate reader (Biotek Instruments, Winooski, VT, USA). The TEAC values were calculated using a Trolox (Sigma-Aldrich, Milan, Italy) calibration curve (60-320 µM).
In this example, the antioxidant activity of pea and rice peptides was tested in vitro in an ABTS Assay as described above.
In this example, the antioxidant activity of peptides CP1, CP2 and CR1 (see Table 1 above) was tested in vitro in an ABTS Assay as described above.

FRAP assay [1] = type: biochemical; conditions: pea and rice peptides 0.01-1 mg/mL; collagen 1-20 mg/mL; ascorbic acid 0.00001-0.1 mg/mL
Caco-2 cells [2] = assay: Trans-epithelial transport of digested and non-digested hydrolysates, LC-MS/MS of AP and BL samples; conditions: without H2O2; for common sequences in BL rice digested vs. BL rice not digested samples: rice hydrolysates; for common sequences in AP pea digested vs. BL pea digested samples: digested pea hydrolysate; for detection in the AP pea and BL pea samples: non-digested pea hydrolysate
Experimental: (§5) Caco-2 cells, obtained from INSERM (Paris, France) were routinely sub-cultured at 50% confluence and maintained at 37°C in a 5% CO2 atmosphere in DMEM containing 25 mM of glucose, 3.7 g/L of NaHCOs, 4 mM of stable L-glutamine, 1% non-essential amino acids, 100 U/L of penicillin and 100 µg/L of streptomycin (complete medium), supplemented with 10% heat-inactivated FBS. To facilitate the establishment of a confluent cell monolayer, cells were seeded on a Transwell at a density of 3.5 × 10^5 cells/cm^2 in complete medium supplemented with 10% FBS in both the AP and BL compartments for a period of 2 days. Cells were seeded, and on day three, they were moved to an FBS-free medium in the AP compartment. They were then allowed to differentiate for 18-21 days, with three weekly medium changes in between. Transepithelial electrical resistance (TEER) of differentiated Caco-2 cells was measured at 37 °C using the Millicell voltmeter device (Millipore Co., Billerica, MA, USA) both before and after the transport experiments for monitoring the integrity of the cell monolayers.
(§6) TEER measurement was used to verify the integrity and differentiation of the cell monolayer prior to transport experiments. Pea and rice peptides trans-epithelial transit was assessed in differentiated Caco-2 cells in transport buffer solution (137 mM NaCl, 5.36 mM KCl, 1.26 mM CaCl2, and 1.1 mM MgCl2, 5.5 mM glucose). The apical (AP) solutions were kept at pH 6.0 (buffered with 10 mM morpholinoethane sulfonic acid) and the basolateral (BL) solutions were kept at pH 7.4 (buffered with 10 mM N-2-hydroxyethylpiperazine-N-4-butanesulfonic acid) in order to replicate the pH conditions found in vivo in the small intestinal mucosa. Before the transport assay, cells were equilibrated in HBSS for 15 minutes at 37°C. In the AP compartment with the AP transport solution (500 µL) and the BL compartment with the BL transport solution (700 µL), rice and pea (5 mg/mL) were added. All BL and AP solutions were collected after two hours of absorption experiment carried out at 37°C, and they were kept at - 80°C before analysis. Transport experiments were performed in duplicate.
(§7) The enzymatic hydrolysis of pea and rice peptides was performed using pepsin and trypsin to simulate gastrointestinal digestion. For pepsin and trypsin digestion, the pH of the solution was adjusted to pH 2 and 8, respectively, by adding 1 M HCl or 1 M NaOH. The pepsin and trypsin solutions were added to the solution at a 1:100 (w/w) E/S ratio. After 60 min of peptic digestion at 37°C, pepsin was inactivated by adjusting the pH to 8; whereas the tryptic digestion (15 minutes) was blocked by heating the solution at 95 °C for 5 min (Lo et al., 2005). Collagen, pea and rice hydrolysates were passed through ultrafiltration membranes for the complete enzymes removal, using a Millipore UF system (Millipore, Bedford, MA, USA). Recovered peptides were lyophilized and stored at -80 °C for high-resolution LC-MS/MS analysis.

Caco-2 cells [3] = tested on: Caco-2 cells
Experimental: as §5, §6, §7

FRAP assay [4] = type: biochemical; conditions: synthesized peptides up to 200 µM
Experimental: The FRAP assay evaluates the ability of a sample to reduce ferric ion (Fe3^+) into ferrous ion (Fe2^+). Thus, 10 µL of samples were mixed with 140 µL of FRAP reagent until reaching the following concentrations: 0.01, 0.1 and 1 mg/mL for pea and rice peptides; 1, 10 and 20 mg/mL for collagen peptides; 0.00001, 0.0001, 0.001 and 0.1 mg/mL for ascorbic acid; 10, 100 and 200 µM for CR1 and CP5 peptides; 25, 50, 100 and 200 µM for CP1 and CP2 peptides. The FRAP reagent was prepared by mixing 1.3 mL of a 10 mM TPTZ (Sigma-Aldrich, Milan, Italy) solution in 40 mM HCl, 1.3 mL of 20 mM FeCl3 × 6H2O and 13 mL of 0.3 M acetate buffer (pH 3.6). The microplate was incubated for 30 min at 37 °C and the absorbance was read at 595 nm. The results were calculated by a Trolox (Sigma-Aldrich, Milan, Italy) standard curve obtained using different concentrations (3-400 µM)). Absorbances were recorded on a Synergy™ HT-multimode microplate reader.
In this example, the antioxidant activity of pea and rice peptides was tested in vitro in a FRAP Assay as described above.
In this example, the antioxidant activity of peptides CP1, CP2, CP5 and CR1 was tested in vitro in a FRAP Assay as described above.

collagen [5] = assay: Western blot analysis, collagen protein level; type: cell-based
Experimental: as §1
A total of 2.2 × 10^5 BJ-5ta cells/well were seeded on 24-well plates and incubated at 37 °C under a 5% CO2 atmosphere. The following day, cells were treated with pea, rice and collagen peptides (5 mg/mL), CR1, CR2, CP1, CP4 and CP5 (250 and 500 µM), CP2 (100, 250 and 500 µM) or vehicle (H2O) in a complete growth medium for 24 h. The day after, cells were stimulated with H2O2 (200 µM) or vehicle (H2O) for 1 h. […] Total proteins were quantified by Bradford method and 50 µg of total proteins loaded on a precast 7.5% Sodium Dodecyl Sulfate - Polyacrylamide (SDS-PAGE) gel at 130 V for 45 min. […] Target proteins, on milk or BSA blocked membrane, were detected by primary antibodies as follows: anti-collagen, anti-elastin, anti-phospho(Thr172)-AMPK, anti-phospho(Ser473)-Akt, anti-NF-κB and anti-β-actin. Secondary antibodies conjugated with HRP and a chemiluminescent reagent were used to visualize target proteins and their signal was quantified using the Image Lab Software (Biorad). […]

elastin [6] = assay: Western blot analysis, elastin protein level; type: cell-based
Experimental: as §1
A total of 2.2 × 10^5 BJ-5ta cells/well were seeded on 24-well plates and incubated at 37 °C under a 5% CO2 atmosphere. The following day, cells were treated with pea, rice and collagen peptides (5 mg/mL), CR1, CR2, CP1, CP4 and CP5 (250 and 500 µM), CP2 (100, 250 and 500 µM) or vehicle (H2O) in a complete growth medium for 24 h. The day after, cells were stimulated with H2O2 (200 µM) or vehicle (H2O) for 1 h. After each treatment, cells were scraped in 30 µL ice-cold lysis buffer [RIPA buffer + inhibitor cocktail + 1:100 PMSF + 1:100 Na-orthovanadate] and transferred in an ice-cold microcentrifuge tube. After centrifugation at 13.300g for 15 min at 4 °C, the supernatant was recovered and transferred into a new ice-cold tube. Total proteins were quantified by Bradford method and 50 µg of total proteins loaded on a precast 7.5% Sodium Dodecyl Sulfate - Polyacrylamide (SDS-PAGE) gel at 130 V for 45 min. Subsequently, the gel was pre-equilibrated with 0.04% SDS in H2O for 15 min at RT and transferred to a nitrocellulose membrane (Mini nitrocellulose Transfer Packs,) using a trans-Blot Turbo at 1.3 A, 25 V for 7 min. Target proteins, on milk or BSA blocked membrane, were detected by primary antibodies as follows: anti-collagen, anti-elastin, anti-phospho(Thr172)-AMPK, anti-phospho(Ser473)-Akt, anti-NF-κB and anti-β-actin. Secondary antibodies conjugated with HRP and a chemiluminescent reagent were used to visualize target proteins and their signal was quantified using the Image Lab Software (Biorad). The internal control β-actin was used to normalize loading variations. […]

collagen [7] = assay: ELISA assay, collagen secretion; type: cell-based, human; conditions: peptides of Table 1, BJ-5ta cells
Experimental: (§2) Cytokines, metalloproteases, collagen and elastin quantification was performed using human Authentikine® ELISA kits (Proteintech, Rosemont, USA) and Cusabio ELISA kits (Houston, TX, USA) according to the manufacturer's instruction and. Briefly, the supernatants collected from treated and H20-stimulated bj-5ta cells were centrifuged at 13,300 × g for 10 minutes at 4°C, then the pellet and insoluble material were discarded. For the experiments, 100 µL of samples were added to each well and the microplate was incubated for 2 hours at 37°C. After the incubation, the solutions were discarded and each well washed 4 times with 300 µL of Wash Buffer solution, then 100 µL of Detection antibody solution were added to each well and the microplate was incubated for 1 hours at 37°C. […] After 4 washes, the TMB substrate (100 µL/well) was added and reactions were stopped after 20 min with 50 µL of Stop Solution and the absorbance at 450 and 540 nm was measured using the Synergy H1 plate reader (BioTek Instruments).
(§3) In this example, the secretion of collagen and elastin with pea and rice peptides was tested in vitro by an ELISA assay as described above. Thereby, ECM stability is evaluated.
(§4) In this example, the secretion of collagen and elastin with the peptides of Table 1 was tested in vitro by an ELISA assay as described above. Thereby, ECM stability is evaluated.

elastin [8] = assay: ELISA assay, elastin secretion; type: cell-based, human
Experimental: as §2, §3, §4

[9] = 250 µM, screening among CR1, CR2, CP1, CP2, CP4, CP5
[10] = 500 µM, among CR1, CR2, CP1, CP2, CP4, CP5

OO [H2O2]
concentration up to which no cytotoxic effects (BJ-5ta cells; skin fibroblasts exposed to increasing concentration of H2O2): ≤ 0.4 mM

O=C1O[C@H]([C@@H](O)CO)C(O)=C1O [ascorbic acid]
ABTS radical scavenging activity, dependence on concentration (ABTS assay; pea and rice peptides 0.01 and 0.1 mg/mL, collagen 0.1-20 mg/mL, ascorbic acid 0.0001-0.01 mg/mL): decreasing radical scavenging activity with increasing concentration | ferric reducing antioxidant power, dependence on concentration (FRAP assay [1]): increase | concentrations with effects on cellular viability (BJ-5ta cells; BJ-5ta cells, 48 h): more than 1 mg/mL

AEDVGEEVER [CR1, AEDVGEEVER]
common sequences in BL rice digested vs. BL rice not digested samples (Caco-2 cells [2]): found

AGFAGDDAPR [CR2, AGFAGDDAPR]
common sequences in BL rice digested vs. BL rice not digested samples (Caco-2 cells [3]): found

DWLLGATGTGK (DVVLLGATGTGK; listed as Oryza sativa) [CR3]
common sequences in BL rice digested vs. BL rice not digested samples (Caco-2 cells [2]): found

DWPEWVR [CP2]
ABTS radical scavenging activity compared with CR1 (ABTS assay; synthesized peptides 1-100 µM): lower than with CR1 | ABTS radical scavenging activity, dependence on concentration (ABTS assay; synthesized peptides 1-100 µM): decreases with increasing concentration | ABTS radical scavenging activity (ABTS assay; synthesized peptides 1-100 µM, compared to control C): lower than the one of the control C | ferric reducing antioxidant power compared with CR1 (FRAP assay [4]): higher than with CR1 | ferric reducing antioxidant power, dependence on concentration (FRAP assay [4]): increases with increasing concentration | ferric reducing antioxidant power (FRAP assay [4]; compared to control C): higher than the control C | modulation of collagen protein level (collagen [5]; [9]): highest modulation of collagen protein level | modulation of collagen protein level (collagen [5]; [10]): highest modulation of collagen protein level | modulation of elastin protein level (elastin [6]; [9]): highest modulation of elastin protein level | modulation of elastin protein level compared to CP4 and CP5 (elastin [6]; 500 µM): higher modulation of elastin protein level compared to CP4 and CP5 | modulation of elastin protein level (elastin [6]; [10]): highest modulation of elastin protein level | stimulation of collagen secretion (collagen [7]): strongest stimulation of collagen secretion | stimulation of elastin secretion (elastin [8]; CP2 at 100 µM versus other peptides at 500 µM): higher than for the other tested peptides at a concentration of 500 µM | stimulation of elastin secretion (elastin [8]; peptides of Table 1, BJ-5ta cells): strongest stimulation of elastin secretion | common sequences in AP pea digested vs. BL pea digested samples (Caco-2 cells [2]): found | detection in the AP pea and BL pea samples (Caco-2 cells [2]): detected

ENIADAAR [CP3, ENIADAAR]
common sequences in AP pea digested vs. BL pea digested samples (Caco-2 cells [2]): found | detection in the AP pea and BL pea samples (Caco-2 cells [2]): detected

GSRQEEEEDEDEERQPR [CP4, GSRQEEEEDEDEERQPR]
common sequences in AP pea digested vs. BL pea digested samples (Caco-2 cells [2]): found | detection in the AP pea and BL pea samples (Caco-2 cells [2]): detected

SEQ-ID:2: peptide identified by MS in pea hydrolysate; sequence not printed in the text (DTSETWAIR; listed as Pisum sativum)
common sequences in AP pea digested vs. BL pea digested samples (Caco-2 cells [2]): found | detection in the AP pea and BL pea samples (Caco-2 cells [2]): detected

SEQ-ID:12: peptide identified by MS in pea hydrolysate; sequence not printed in the text (SSNNQLDQMPR; listed as Pisum sativum)
common sequences in AP pea digested vs. BL pea digested samples (Caco-2 cells [2]): found | detection in the AP pea and BL pea samples (Caco-2 cells [2]): detected

SEQ-ID:15: peptide identified by MS in pea hydrolysate; sequence not printed in the text (LDEAAEPAALER; listed as Pisum sativum)
common sequences in AP pea digested vs. BL pea digested samples (Caco-2 cells [2]): found

SEQ-ID:35: peptide identified by MS in pea hydrolysate; sequence not printed in the text (SVFNGEVR; listed as Pisum sativum)
common sequences in AP pea digested vs. BL pea digested samples (Caco-2 cells [2]): found
